Values quoted from earlier work in patent US20090192135A1, “Human Niemann Pick C1-Like 1 Gene (NPC1L1) Polymorphisms and Methods of Use Thereof” (SCHERING CORPORATION, priority 2005, published 2009).

Biological target: T1, NPC1L1 (Homo sapiens, UniProt Q9UHC9)
T1 construct: from tissue; host or cells: small intestine of hypercholesterolemic patients (in vivo, clinical trial)
T1 sequence (Q9UHC9 22-1332 isoform Q9UHC9-2 limits assumed): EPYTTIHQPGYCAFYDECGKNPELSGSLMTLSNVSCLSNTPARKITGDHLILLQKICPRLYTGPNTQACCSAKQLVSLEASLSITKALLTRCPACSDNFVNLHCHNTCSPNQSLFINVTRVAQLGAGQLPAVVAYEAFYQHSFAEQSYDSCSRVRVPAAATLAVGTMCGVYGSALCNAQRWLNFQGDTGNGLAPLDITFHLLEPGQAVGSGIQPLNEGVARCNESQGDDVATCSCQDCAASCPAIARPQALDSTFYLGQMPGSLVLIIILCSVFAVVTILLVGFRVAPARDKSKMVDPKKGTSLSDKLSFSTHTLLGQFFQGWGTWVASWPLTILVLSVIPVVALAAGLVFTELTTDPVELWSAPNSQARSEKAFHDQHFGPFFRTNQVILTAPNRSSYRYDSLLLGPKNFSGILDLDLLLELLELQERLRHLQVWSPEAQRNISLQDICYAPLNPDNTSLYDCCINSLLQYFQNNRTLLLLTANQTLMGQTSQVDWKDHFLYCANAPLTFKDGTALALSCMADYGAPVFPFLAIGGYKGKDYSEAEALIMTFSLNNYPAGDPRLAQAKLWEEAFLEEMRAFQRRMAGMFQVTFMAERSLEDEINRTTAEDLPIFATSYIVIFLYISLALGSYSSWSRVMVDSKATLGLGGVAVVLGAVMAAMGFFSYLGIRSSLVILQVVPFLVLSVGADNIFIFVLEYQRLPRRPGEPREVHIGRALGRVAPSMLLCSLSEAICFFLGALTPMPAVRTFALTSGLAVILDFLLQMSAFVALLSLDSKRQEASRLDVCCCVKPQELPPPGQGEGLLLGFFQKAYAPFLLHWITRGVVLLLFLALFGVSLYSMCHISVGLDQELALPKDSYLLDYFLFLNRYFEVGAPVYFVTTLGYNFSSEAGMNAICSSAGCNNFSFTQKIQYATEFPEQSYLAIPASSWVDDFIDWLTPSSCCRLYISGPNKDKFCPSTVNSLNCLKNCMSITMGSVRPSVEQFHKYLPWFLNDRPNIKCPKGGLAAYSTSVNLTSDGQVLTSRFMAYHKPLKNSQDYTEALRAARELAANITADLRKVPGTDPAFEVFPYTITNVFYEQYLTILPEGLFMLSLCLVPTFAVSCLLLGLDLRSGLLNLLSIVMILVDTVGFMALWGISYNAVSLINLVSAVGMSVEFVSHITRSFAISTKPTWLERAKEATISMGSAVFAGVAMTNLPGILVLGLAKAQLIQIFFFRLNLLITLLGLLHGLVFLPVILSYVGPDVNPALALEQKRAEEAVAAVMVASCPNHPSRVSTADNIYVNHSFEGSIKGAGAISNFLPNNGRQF
Conditions: cited from earlier work

## O=C1[C@H](CC[C@H](O)c2ccc(F)cc2)[C@@H](c2ccc(O)cc2)N1c1ccc(F)cc1 [ezetimibe, 1-(4-fluorophenyl)-3(R)-[3-(4-fluorophenyl)-3(S)-hydroxypropyl]-4(S)-(4-hydroxyphenyl)-2-azetidinone]
Added to ongoing statin therapy, stable dose of statins, EASE
  additional LDL-C reduction compared with addition of placebo: ~23%
Ezetimibe group of EASE trial (placebo 2.7%, p<0.001)
  reduction in LDL-C: 25.8%
